Test results published in PubChem BioAssay AID686923 (Vanderbilt Specialized Chemistry Center, 2013).
Activity calls are given as the source filed them. No rule for the calls is given here.

Experiments:
[1] = target: In vitro counter assay against key known off-targets for selectedBMP Compounds; assay: PubChem AID 686923; conditions: in vitro kinase counter-screen panel
[2] = target: Vascular endothelial growth factor receptor 2 (Homo sapiens) (UniProt P35968); assay: PubChem AID 686923; conditions: in vitro kinase counter-screen panel
Sequence of Vascular endothelial growth factor receptor 2 (Homo sapiens) (P35968 whole entry, looked up): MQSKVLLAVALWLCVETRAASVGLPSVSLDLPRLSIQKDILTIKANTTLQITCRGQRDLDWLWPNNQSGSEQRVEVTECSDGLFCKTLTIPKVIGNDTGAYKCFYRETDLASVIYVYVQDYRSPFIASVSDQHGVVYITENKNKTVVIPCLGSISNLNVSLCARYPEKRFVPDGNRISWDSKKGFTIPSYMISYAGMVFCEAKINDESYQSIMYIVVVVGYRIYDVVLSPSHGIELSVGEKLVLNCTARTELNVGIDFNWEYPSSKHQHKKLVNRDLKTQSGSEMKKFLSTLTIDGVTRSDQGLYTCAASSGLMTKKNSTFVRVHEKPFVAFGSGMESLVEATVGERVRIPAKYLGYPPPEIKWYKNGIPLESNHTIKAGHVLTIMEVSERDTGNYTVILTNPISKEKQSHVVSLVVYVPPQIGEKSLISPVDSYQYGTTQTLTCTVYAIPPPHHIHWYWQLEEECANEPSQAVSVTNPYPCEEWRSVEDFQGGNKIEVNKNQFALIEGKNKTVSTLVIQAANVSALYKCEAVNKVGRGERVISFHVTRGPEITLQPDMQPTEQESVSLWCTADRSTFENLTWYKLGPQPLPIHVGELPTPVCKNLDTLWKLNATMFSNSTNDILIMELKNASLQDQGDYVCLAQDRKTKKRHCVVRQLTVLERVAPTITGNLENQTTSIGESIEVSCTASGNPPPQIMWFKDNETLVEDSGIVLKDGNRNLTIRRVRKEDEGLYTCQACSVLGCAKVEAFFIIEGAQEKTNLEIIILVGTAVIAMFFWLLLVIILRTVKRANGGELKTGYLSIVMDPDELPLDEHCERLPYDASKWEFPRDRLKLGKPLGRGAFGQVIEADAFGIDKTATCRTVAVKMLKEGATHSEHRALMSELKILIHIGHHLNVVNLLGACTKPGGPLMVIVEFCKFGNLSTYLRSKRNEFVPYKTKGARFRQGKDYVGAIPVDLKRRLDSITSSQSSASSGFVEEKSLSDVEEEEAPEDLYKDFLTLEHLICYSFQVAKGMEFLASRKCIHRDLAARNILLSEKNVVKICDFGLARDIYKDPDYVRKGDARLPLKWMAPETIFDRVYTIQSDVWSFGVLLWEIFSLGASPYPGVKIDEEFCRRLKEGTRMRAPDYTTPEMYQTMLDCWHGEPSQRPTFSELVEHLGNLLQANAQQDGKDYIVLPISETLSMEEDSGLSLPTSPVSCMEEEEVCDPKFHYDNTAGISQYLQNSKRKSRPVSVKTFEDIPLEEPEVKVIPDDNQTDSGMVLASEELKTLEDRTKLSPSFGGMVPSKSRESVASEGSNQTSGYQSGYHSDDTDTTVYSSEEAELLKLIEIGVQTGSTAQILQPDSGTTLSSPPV

IC50 [1]	IC50 [2]	Compound
inactive	inactive	COc1ccc(-c2cnc3c(-c4cccc5cccnc45)cnn3c2)cc1
–	inactive	COc1ccc(-c2cnc3c(-c4cccc5ncccc45)cnn3c2)cc1
253 µM	–	c1cc(-c2cnn3cc(-c4ccc(N5CCNCC5)cc4)cnc23)c2cccnc2c1
